From paper PMC4656118 (Journal of biomolecular screening, 2014)

Assays:
[1] = target: N-LANA peptide binding to nucleosomes (histones H2A/H2B) (Gallus gallus, UniProt P02263+P0C1H3); experiment: biochemical; parameters: species or system chicken; details: for Scored positive for inhibition in HTS at ICCB-L/NSRB: 49,810 small molecules screened in duplicate, Z score; for Identified as hit in pilot screen (Z score < −2 for both replicates): pilot screen of known bioactives
[2] = system: salmon sperm DNA; experiment: Counterscreen to detect DNA intercalators; format: binding; details: for DNA intercalation (competition with acridine orange): pilot screen hits at increasing concentrations; for Competition with acridine orange for DNA intercalation (acridine orange mP values): assay validation, increasing concentration, monensin up to 1uM
[3] = target: GST LANA1-23 binding to nucleosomes (Gallus gallus, UniProt P02263+P0C1H3); experiment: ELISA, inhibition of GST LANA1-23 binding to nucleosomes; parameters: species or system chicken; details: increasing concentrations of competitor or compound

| SMILES | Scored positive for inhibition in HTS at ICCB-L/NSRB [1] | Identified as hit in pilot screen (Z score < −2 for both replicates) [1] | DNA intercalation (competition with acridine orange) [2] | Inhibition of LANA 1-23 binding to nucleosomes ([1]; negative control for HTS) | Competition with acridine orange for DNA intercalation (acridine orange mP values) [2] | Confirmation of inhibitory activity by FP ([1]; pilot screen hits retested at increasing concentrations) | Inhibition of GST LANA1-23 binding to nucleosomes by ELISA [3] | IC50 [1] |
| --- | --- | --- | --- | --- | --- | --- | --- | --- |
| COc1cccc2c1C(=O)c1c(O)c3c(c(O)c1C2=O)C[C@@](O)(C(C)=O)C[C@@H]3O[C@H]1C[C@H](N)[C@H](O)[C@H](C)O1 [daunorubicin] | scored positive | identified | scored positive for DNA intercalation | – | – | – | – | – |
| CC[C@@]1([C@@H]2O[C@@H]([C@H]3O[C@@](O)(CO)[C@H](C)C[C@@H]3C)C[C@@H]2C)CC[C@H]([C@]2(C)CC[C@]3(C[C@H](O)[C@@H](C)[C@@H]([C@@H](C)[C@@H](OC)[C@H](C)C(=O)O)O3)O2)O1 [Monensin, monensin] | – | – | – | did not inhibit | negligible effect | – | – | – |
| CC[C@@]1(O)C(=O)OCc2c1cc1n(c2=O)Cc2cc3cc(O)ccc3nc2-1 [10-HCT, 10-hydroxycamptothecin] | – | identified | inconsistently competed | – | – | could not be confirmed | – | – |
| CC[n+]1c(-c2ccccc2)c2cc(N)ccc2c2ccc(N)cc21 [EtBr, ethidium bromide] | – | – | – | – | reduced acridine orange mP values | – | – | – |
| COc1cccc2c1C(=O)c1c(O)c3c(c(O)c1C2=O)C[C@@](O)(C(=O)CO)C[C@@H]3O[C@H]1C[C@H](N)[C@H](O)[C@H](C)O1 [doxorubicin] | scored positive | identified | scored positive for DNA intercalation | – | – | – | inhibitory activity | < 25 µM |
| CC[N+](C)(CC)CCC[n+]1c(-c2ccccc2)c2cc(N)ccc2c2ccc(N)cc21.[I-].[I-] [PI, propidium iodide] | – | – | – | – | reduced acridine orange mP values | – | – | – |
| O=C1c2c(O)ccc(O)c2C(=O)c2c(NCCNCCO)ccc(NCCNCCO)c21 [MTX, mitoxantrone] | scored positive | identified | scored positive for DNA intercalation | – | reduced acridine orange mP values | – | inhibitory activity | < 25 µM |
